Measurements reported in US20130143929A1, “FUNGICIDAL IMIDAZOLES” (EI DU PONT DE NEMOURS AND COMPANY, priority 2010, published 2013).
Marks after values point to notes of the source that are not given here.

Legend:
Format in all cases: in vivo
[1] = system: Puccinia recondite f. sp. tritici (the causal agent of wheat leaf rust); assay: Test A: wheat leaf rust, preventive spray on wheat seedlings, visual disease rating; conditions: for Test A rating (100 = 100% disease control, 0 = no disease control relative to the controls): wheat leaf rust, preventive spray on wheat seedlings; for Test A rating (% disease control, wheat leaf rust): 100 = 100% disease control
From the text: (§1) General protocol for preparing test suspensions for Tests A-D: the test compounds were first dissolved in acetone in an amount equal to 3% of the final volume and then suspended at the desired concentration (in ppm) in acetone and purified water (50/50 mix by volume) containing 250 ppm of the surfactant Trem® 014 (polyhydric alcohol esters). The resulting test suspensions were then used in Tests A-D. Spraying a 200 ppm test suspension to the point of run-off on the test plants was the equivalent of a rate of 800 g/ha.
The test suspension was sprayed to the point of run-off on wheat seedlings. The following day the seedlings were inoculated with a spore suspension of Puccinia recondite f. sp. tritici (the causal agent of wheat leaf rust) and incubated in a saturated atmosphere at 20° C. for 24 h, and then moved to a growth chamber at 20° C. for 7 days, after which time visual disease ratings were made.
(§2) Results for Tests A-E are given in Table A. In the Table, a rating of 100 indicates 100% disease control and a rating of 0 indicates no disease control (relative to the controls). A dash (—) indicates no test results. An asterisk “*” next to the rating value indicates a 40 ppm test suspension was used.

[2] = system: Septoria tritici (the causal agent of wheat leaf blotch); assay: Test B: wheat leaf blotch, preventive spray on wheat seedlings, visual disease rating; conditions: for Test B rating (100 = 100% disease control, 0 = no disease control relative to the controls): wheat leaf blotch, preventive spray on wheat seedlings; for Test B rating (% disease control, wheat leaf blotch): 100 = 100% disease control
From the text: as §1
(§3) The test suspension was sprayed to the point of run-off on wheat seedlings. The following day the seedlings were inoculated with a spore suspension of Septoria tritici (the causal agent of wheat leaf blotch) and incubated in a saturated atmosphere at 24° C. for 48 h, and then moved to a growth chamber at 20° C. for 19 days, after which time visual disease ratings were made.
as §2

[3] = system: Botrytis cinerea (the causal agent of tomato Botrytis); assay: Test C: tomato Botrytis, preventive spray on tomato seedlings, visual disease rating; conditions: for Test C rating (100 = 100% disease control, 0 = no disease control relative to the controls): tomato Botrytis, preventive spray on tomato seedlings; for Test C rating (% disease control, tomato Botrytis): 100 = 100% disease control
From the text: as §1
as §3, with “tomato” for “wheat”, “Botrytis cinerea” for “Septoria tritici”, “tomato Botrytis)” for “wheat leaf blotch)”, “20°” for “24°”, “24°” for “20°”, “3” for “19”
as §2

[4] = system: Blumeria graminis f. sp. tritici (also known as Erysiphe graminis f. sp. tritici, the causal agent of wheat powdery mildew); assay: Test D: wheat powdery mildew, preventive spray on wheat seedlings, visual disease rating; conditions: for Test D rating (100 = 100% disease control, 0 = no disease control relative to the controls): wheat powdery mildew, preventive spray on wheat seedlings; for Test D rating (% disease control, wheat powdery mildew): 100 = 100% disease control
From the text: as §1
The test suspension was sprayed to the point of run-off on wheat seedlings. The following day the seedlings were inoculated with a spore dust of Blumeria graminis f. sp. tritici, (also known as Erysiphe graminis f. sp. tritici, the causal agent of wheat powdery mildew) and incubated in a growth chamber at 20° C. for 8 days, after which time visual disease ratings were made.
as §2

[5] = no asterisk (standard test suspension concentration, not 40 ppm)
[6] = asterisk: 40 ppm test suspension
[7] = asterisk: 40 ppm test suspension, 0 = no control
[8] = no asterisk: standard test suspension concentration, 0 = no control relative to controls

Structure (SMILES)	Test A rating (100 = 100% disease control, 0 = no disease control relative to the controls) [1, 5] [%]	Test B rating (100 = 100% disease control, 0 = no disease control relative to the controls) [2, 5] [%]	Test C rating (100 = 100% disease control, 0 = no disease control relative to the controls) [3, 5] [%]	Test D rating (100 = 100% disease control, 0 = no disease control relative to the controls) [4, 5] [%]	Test A rating (100 = 100% disease control, 0 = no disease control relative to the controls) [1, 6]	Test B rating (100 = 100% disease control, 0 = no disease control relative to the controls) [2, 6]	Test C rating (100 = 100% disease control, 0 = no disease control relative to the controls) [3, 6]	Test D rating (100 = 100% disease control, 0 = no disease control relative to the controls) [4, 6]	also measured
Cc1ncc(C(O)c2c(F)cc(F)cc2F)n1-c1ccc(F)cc1Cl (centres unmarked) [compound 170]	99	73	63	0	–	–	–	–	–
Cc1cccc(Br)c1-n1c(C)nc(Cl)c1C(O)c1ccc(F)cc1Cl (centres unmarked) [compound 336]	–	–	–	–	97* %	89* %	72* %	90* %	–
Cc1nc(Cl)n(-c2c(F)cccc2F)c1C(O)c1c(F)ccc(Br)c1F (racemic) [compound 25]	–	–	–	–	99* %	100* %	87* %	0* %	–
COc1cc(F)c(-n2c(C)nc(Cl)c2C(O)c2ccc(F)cc2F)c(F)c1 (centres unmarked) [compound 411]	–	–	–	–	–	–	–	–	Test A rating (% disease control, wheat leaf rust) [1, 7]: 100* %; Test B rating (% disease control, wheat leaf blotch) [2, 7]: 100* %; Test C rating (% disease control, tomato Botrytis) [3, 7]: 85* %; Test D rating (% disease control, wheat powdery mildew) [4, 7]: 50* %
Cc1ncc(C(O)c2ccc(Cl)cc2)n1-c1ccc(F)cc1Br (centres unmarked) [compound 139]	86	49	0	0	–	–	–	–	–
Cc1ncc(C(O)c2ccc(F)cc2Br)n1-c1c(F)cc(F)cc1Br (centres unmarked) [compound 94]	100	100	99	56	–	–	–	–	–
OC(c1ccc(Cl)cc1)c1c(Cl)nc(Cl)n1-c1c(F)cc(F)cc1Br (centres unmarked) [compound 44]	99	100	99	88	–	–	–	–	–
Cc1nc(Br)c(C(O)c2c(F)cccc2F)n1-c1c(F)cccc1F (centres unmarked) [compound 106]	–	–	–	–	99* %	100* %	91* %	43* %	–
COc1cc(F)c(C(O)c2cnc(C)n2-c2ccc(F)cc2Cl)c(F)c1 (centres unmarked) [compound 363]	98	74	9	0	–	–	–	–	–
Cc1ncc(C(O)c2ccc(F)cc2F)n1-c1ccc(F)cc1Br (centres unmarked) [compound 321]	–	–	–	–	0* %	0* %	0* %	0* %	–
Cc1nc(Cl)n(-c2ccc(Cl)cc2Cl)c1C(O)c1c(F)cc(Cl)cc1F (racemic) [compound 36]	99	100	98	0	–	–	–	–	–
Cc1cccc(F)c1-n1c(C)nc(Br)c1C(O)c1ccc(F)cc1Cl (centres unmarked) [compound 342]	–	–	–	–	94* %	100* %	98* %	64* %	–
COc1ccc(C(O)c2c(C)nc(Cl)n2-c2c(F)cccc2Cl)c(C)c1 (centres unmarked) [compound 212]	–	–	–	–	100* %	100* %	100* %	97* %	–
COc1ccc(C(O)c2c(Br)nc(C)n2-c2c(F)cc(F)cc2Br)c(Cl)c1 (centres unmarked) [compound 351]	–	–	–	–	100* %	100* %	90* %	95* %	–
Cc1nc(Cl)c(C(O)c2ccc(F)cc2F)n1-c1c(F)cc(Cl)cc1F (centres unmarked) [compound 127]	–	–	–	–	100* %	100* %	73* %	0* %	–
Cc1nc(Br)c(C(O)c2ccc(F)cc2Cl)n1-c1c(F)cc(F)cc1Br (centres unmarked) [compound 136]	100	100	100	79	–	–	–	–	–
OC(c1ccc(F)cc1F)c1c(Cl)nc(Br)n1-c1c(F)cc(Cl)cc1F (centres unmarked) [compound 125]	–	–	–	–	100* %	100* %	100* %	79* %	–
Cc1nc(Cl)c(C(O)c2ccc(Cl)cc2Cl)n1-c1c(F)cc(F)cc1Cl (centres unmarked) [compound 66]	–	–	–	–	100* %	100* %	99* %	69* %	–
OC(c1ccc(F)cc1F)c1c(Cl)nc(Cl)n1-c1c(F)cc(Cl)cc1F (centres unmarked) [compound 154]	–	–	–	–	100* %	100* %	100* %	89* %	–
Cc1cccc(Br)c1-n1c(C)nc(Br)c1C(O)c1ccc(F)cc1F (centres unmarked) [compound 337]	–	–	–	–	86* %	86* %	71* %	0* %	–
Cc1nc(Br)c(C(O)c2ccc(F)cc2Cl)n1-c1ccc(F)cc1F (racemic) [compound 240]	–	–	–	–	99* %	100* %	99* %	89* %	–
Cc1nc(Cl)n(-c2c(F)cccc2Cl)c1C(O)c1ccc(F)cc1Cl (centres unmarked) [compound 206]	–	–	–	–	100* %	100* %	100* %	93* %	–
Cc1cc(F)ccc1C(O)c1cnc(C)n1-c1ccc(F)cc1Cl (centres unmarked) [compound 395]	–	–	–	–	–	–	–	–	Test A rating (% disease control, wheat leaf rust) [1, 8]: 99%; Test B rating (% disease control, wheat leaf blotch) [2, 8]: 100%; Test C rating (% disease control, tomato Botrytis) [3, 8]: 21%; Test D rating (% disease control, wheat powdery mildew) [4, 8]: 35%
